{"source": "patent US20020035058A1", "about": "“Isopentenyl pyrophosphate isomerase (IPI) and/or prenyl transferase inhibitors” (The University of Sheffield, priority 1996, published 2002)", "key": {"[1]": {"tested_on": "Rab6", "test": "Immunoprecipitation of Rab6: geranylgeranylation of Rab6", "type": "cell-based", "details": "41 h"}, "[2]": {"molecular_target": "IPI (IPP isomerase) (Homo sapiens, UniProt Q13907)", "sequence (Q13907 whole entry)": "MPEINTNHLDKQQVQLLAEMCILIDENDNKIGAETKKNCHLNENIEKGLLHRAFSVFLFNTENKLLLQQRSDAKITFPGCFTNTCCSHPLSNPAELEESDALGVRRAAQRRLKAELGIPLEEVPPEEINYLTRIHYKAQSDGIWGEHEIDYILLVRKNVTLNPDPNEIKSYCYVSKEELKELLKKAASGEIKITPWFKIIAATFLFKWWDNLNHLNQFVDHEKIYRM", "test": "Inhibition of IPI (IPP isomerase) by bisphosphonates", "type": "biochemical", "details": "concentration required to inhibit enzyme activity by 50%"}, "[3]": {"tested_on": "Ras", "test": "Immunoprecipitation of Ras: farnesylation of Ras", "type": "cell-based", "details": "41 h"}, "[4]": {"tested_on": "J774 macrophages", "test": "Loss of total cell viability, MTT reduction", "type": "cell-based", "details": "for pIC50: read-out: concentration causing 50% loss of total cell viability"}, "[5]": {"tested_on": "protein prenylation in J774 cells", "test": "Protein prenylation: incorporation of mevalonate into proteins", "type": "cell-based", "details": "for incorporation of radiolabel (mevalonate) into protein bands: 100 μM, 24 h labelling period"}, "[6]": {"molecular_target": "T1, squalene synthase (Rattus norvegicus, UniProt Q02769)", "T1 sequence (Q02769 1-416)": "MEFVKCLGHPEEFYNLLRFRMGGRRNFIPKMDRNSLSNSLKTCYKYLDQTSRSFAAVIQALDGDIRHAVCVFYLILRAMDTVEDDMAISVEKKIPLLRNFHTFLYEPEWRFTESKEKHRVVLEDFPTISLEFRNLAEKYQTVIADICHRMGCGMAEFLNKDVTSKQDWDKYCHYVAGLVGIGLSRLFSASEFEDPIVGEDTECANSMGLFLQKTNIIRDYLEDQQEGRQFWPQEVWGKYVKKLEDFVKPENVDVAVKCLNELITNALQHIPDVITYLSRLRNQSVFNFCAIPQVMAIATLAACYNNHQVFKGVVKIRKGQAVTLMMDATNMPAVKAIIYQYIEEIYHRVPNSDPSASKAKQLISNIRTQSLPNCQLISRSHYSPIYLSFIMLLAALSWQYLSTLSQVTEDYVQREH", "details": "cited from earlier work"}, "[7]": {"tested_on": "J774 macrophages", "test": "Assessment of apoptosis in J774 macrophages (nuclear morphology, DNA fragmentation)", "type": "cell-based", "details": "10-100 μM"}}, "note": "pIC50: −log10 of the molar value. Like-named read-outs stand apart in the source and are kept apart here.", "data": [{"smiles": "NCCCC(O)(P(=O)(O)O)P(=O)(O)O", "note": "[ALENDRONATE, alendronate]", "values": [{"measurement": "geranylgeranylated form of Rab6 after immunoprecipitation", "setting": "[1]; 10 μM", "value": "barely detectable"}, {"measurement": "pIC50", "setting": "[2]", "value": 7.12}, {"measurement": "farnesylated form of Ras after immunoprecipitation", "setting": "[3]; 100 μM", "value": "barely detectable"}, {"measurement": "apoptosis and loss of cell viability with FPP or GGPP co-incubation", "setting": "[4]; 100 μM alendronate + 200 μM FPP or GGPP", "value": "could be partially inhibited"}, {"measurement": "pIC50", "setting": "[4]; Mus musculus, J774 cells, after 48 h", "value": "~4.52"}, {"measurement": "incorporation of radiolabel (mevalonate) into protein bands", "setting": "[5]", "value": "markedly reduced"}, {"measurement": "inhibition of squalene synthase", "setting": "[6]", "value": "not"}]}, {"smiles": "CCCCCN(C)CCC(O)(P(=O)(O)O)P(=O)(O)O", "note": "[IBANDRONATE, ibandronate]", "values": [{"measurement": "pIC50", "setting": "[2]", "value": 7.46}, {"measurement": "incorporation of radiolabel (mevalonate) into protein bands", "setting": "[5]", "value": "markedly reduced"}, {"measurement": "inhibition of squalene synthase", "setting": "[6]", "value": "potent inhibitors"}]}, {"smiles": "O=P(O)(O)C(O)(Cc1cccnc1)P(=O)(O)O", "note": "[RISEDRONATE, risedronate]", "values": [{"measurement": "pIC50", "setting": "[2]", "value": 7.66}, {"measurement": "pIC50", "setting": "[4]; Mus musculus, J774, 48 h", "value": "~5.52"}]}, {"smiles": "O=P(O)(O)C(NC1CCCCCC1)P(=O)(O)O", "note": "[YM175]", "values": [{"measurement": "pIC50", "setting": "[2]", "value": 7.46}, {"measurement": "incorporation of radiolabel (mevalonate) into protein bands", "setting": "[5]", "value": "inhibited even more effectively"}, {"measurement": "inhibition of squalene synthase", "setting": "[6]", "value": "potent inhibitors"}]}, {"smiles": "O=P(O)(O)C(Cl)(Cl)P(=O)(O)O", "note": "[clodronate]", "values": [{"measurement": "reduction in viability of J774 cells", "setting": "[4]; 750 μM", "value": "substantial reduction"}, {"measurement": "protein prenylation and synthesis of radiolabelled dye-front compounds", "setting": "[5]; 750 μM", "value": "did not affect"}]}, {"smiles": "CC[C@H](C)C(=O)O[C@H]1CCC=C2C=C[C@H](C)[C@H](CC[C@@H]3C[C@@H](O)CC(=O)O3)[C@H]21", "note": "[mevastatin]", "values": [{"measurement": "geranylgeranylated form of Rab6 after immunoprecipitation", "setting": "[1]; 11 μM", "value": "barely detectable"}, {"measurement": "farnesylated form of Ras after immunoprecipitation", "setting": "[3]; 15 μM", "value": "Identical results"}, {"measurement": "proportion of J774 cells with features typical of apoptosis", "setting": "[7]", "value": "dose-dependent increase"}, {"measurement": "loss of cell viability with cycloheximide co-incubation", "setting": "[4]; 15 μM mevastatin + 0.5 μM cycloheximide, 48 h", "value": "could be prevented"}, {"measurement": "pIC50", "setting": "[4]; J774 cells, after 48 h", "value": "~5.00"}, {"measurement": "loss of cell viability and apoptosis with FPP, GGPP or mevalonic acid lactone co-incubation", "setting": "[4]; mevastatin + 200 μM FPP, GGPP or mevalonic acid lactone", "value": "prevented (at least partially)"}]}]}
